Source: patent publication US11220527B2, “Peptides derived from the propeptide NTSR3 and their use in the treatment of depression” (CENTRE NATIONAL DE LA RECHERCHE SCIENTIFIQUE, priority 2016, dated 2022)
pIC50: −log10 of the molar value. Where no end group is shown, it is not given here.

Assays:
[1] = test system: BrdU-positive cells of the dentate gyrus of the hippocampus; assay: Hippocampal neurogenesis by BrdU immunohistochemistry; assay type: in vivo; conditions: mice, four days of treatment, FIG. 5
Experimental: BrdU (5-bromo-2′-deoxyuridine) is a synthetic nucleoside analogous to thymidine. It is incorporated during DNA replication during phase S (chromosome duplication during interphase) of the cells in division. Injection of BrdU makes it possible to visualize the cells in division of the tissue to be analyzed by means of immunological labeling. In the present study, the hippocampal neurogenesis of the mice was evaluated after treatment with spadin or the different analogs.
After the behavioral tests, the mice were injected with BrdU at a final concentration of 120 mg/kg intraperitoneally, according to the modified protocol of Beauquis, J. et al. (Eur J Neurosci 23, 1539-1546, 2007). Four injections of 300 μl at 10 mg/ml, spaced two hours apart, were performed. 24 hours after the injections, the mice were anesthetized with pentobarbital (100 mg/kg) and then perfused intracardially. During the intracardiac perfusion, physiological saline was administered to remove all blood from the body of the mice, and then 4% paraformaldehyde (PFA) was perfused to fix the organs. Post-fixation in 4% PFA was also performed overnight. The brains of the mice were cut with a vibratome (Leica), which allowed 40 μm floating frontal sections to be obtained. The sections selected for the immunological reaction were those ranging from bregma 3.3 to 5.3. Eight sections were selected with a regular spacing, allowing the entire hippocampus to be covered while remaining homogeneous from one brain to another.
The immunological reaction was performed by incubating an anti-BrdU primary antibody (BD Pharmingen, 1/8000), with the brain sections, overnight at 4° C. The brain sections were then washed in PBS (Phosphate Buffered Saline) and incubated for two hours with the secondary antibody (biotinylated goat anti-mouse antibody, Vector laboratories, 1/400). […]
The sections were then mounted on slides and fixed with Entellan. BrdU-positive cells of the dentate gyrus of the hippocampus were counted in both hemispheres of each brain. […]

TREK-1 channel = molecular target: T1, TREK-1 channel (Homo sapiens, UniProt O95069); assay: Whole-cell patch clamp of TREK-1 channel activity in hTREK-1/HEK293 cells; assay type: cell-based; parameters: expressed in transfected cells; conditions: dose-response measured at 0 mV, sigmoidal fit, FIG. 2; read-out: half-effect concentration (IC50) of TREK-1 channel activity inhibition
T1 sequence (O95069 1-426): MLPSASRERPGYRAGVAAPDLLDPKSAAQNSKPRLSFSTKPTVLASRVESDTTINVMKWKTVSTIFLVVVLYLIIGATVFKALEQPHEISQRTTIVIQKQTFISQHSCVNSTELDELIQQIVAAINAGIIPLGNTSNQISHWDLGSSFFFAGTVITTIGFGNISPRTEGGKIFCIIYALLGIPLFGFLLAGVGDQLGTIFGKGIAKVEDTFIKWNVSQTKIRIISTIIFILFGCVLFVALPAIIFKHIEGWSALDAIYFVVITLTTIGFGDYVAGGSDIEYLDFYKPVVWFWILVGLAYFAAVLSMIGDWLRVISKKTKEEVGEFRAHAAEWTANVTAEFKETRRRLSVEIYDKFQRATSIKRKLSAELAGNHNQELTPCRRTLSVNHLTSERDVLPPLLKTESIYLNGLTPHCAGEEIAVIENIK
Experimental: All experiments measuring the effect of spadin analogs and spadin were performed on ßTC3 or LNCaP or HEK293 cells stably transfected with the TREK-1 channel, hTREK-1/HEK293. The hTREK-1/HEK293 cell line was prepared in the laboratory. These cells also express a reporter gene: E-Green Fluorescent Protein (EGFP) enabling their visualization.
These cells were seeded at a density of 20,000 cells/dish of 35 mm diameter, 24 to 72 hours before being used.
The HEK293 cells were cultured in DMEM medium (Gibco)/10% fetal calf serum (FCS, ICN)/1% streptomycin+penicillin mixture (Gibco)/1% glutamax (Gibco)/0.5 mg/mL of G418 (Sigma) at 37° C. in the presence of 5% CO2.
The LNCaP cells were cultured in DMEM medium (Gibco)/10% fetal calf serum (FCS, ICN)/1% streptomycin+penicillin mixture (Gibco)/1% glutamax (Gibco)/at 37° C. in the presence of 5% CO2. […] From day 2 to day 4, the cells were measured by electrophysiological methods.
All measurements were made at room temperature, i.e. at 21-22° C. The hTREK-1/HEK293 cells were identified by the fluorescence emitted by EGFP after excitation at 480 nm. […]
The cell culture medium was replaced with a solution 150 mM NaCl, 5 mM KCl, 3 mM MgCl2, 1 mM CaCl2, 10 mM HEPES/NaOH pH 7.4 containing 10 mM tetraethylammonium chloride, 3 mM 4-aminopyridine. […] The resting potential of the membrane of the measured cell was set at −80 mV. […]

AVSWGLR [G/A-PE(22-28), AVSWGLR]
neurogenesis (BrdU-positive cells of the hippocampus) [1]: increase neurogenesis more strongly than peptide PE(22-28) | neurogenesis (BrdU-positive cells of the hippocampus) ([1]; listed as G/APE(22-28)): capable of inducing an increase in neurogenesis | pIC50 (TREK-1 channel): 9.92
